{"source": "patent US5317019A", "about": "“Inhibition of interleukin-1 and tumor necrosis factor production by monocytes and/or macrophages” (priority 1991, dated 1994)", "key": {"[1]": {"tested_on": "IL-1 production by human monocytes", "test": "In vitro IL-1 production by LPS-stimulated human monocytes", "type": "cell-based", "settings": "Homo sapiens, Monocyte; Table 1; LPS 50 ng/ml, 24 h; read-out: IC50, effect on LPS-stimulated IL-1 production by human monocytes", "method": "Bacterial lipopolysaccharide (LPS) was used to induce IL-1 production by human peripheral blood monocytes. IL-1 activity was measured by its ability to stimulate a Interleukin 2 (IL-2) producing cell line […] to secrete IL-2, in concert with A23187 ionophore, according to the method of Simon et al., J. Immunol. […] The cells were allowed to adhere for 2 hours, after which time non-adherent cells were removed by gentle washing. […] At the end of the incubation period, culture supernatants were removed and clarified of cells and all debris."}, "[2]": {"tested_on": "arachidonic acid-induced mouse ear swelling", "test": "Arachidonic acid-induced mouse ear swelling (p.o.)", "type": "in vivo", "settings": "50 mg/kg p.o.; *** p less than 0.001", "method": "^a Mouse ear edema was measured as described in Griswold et al.,\nInflammation, II(2), 189-199 (1987), the disclosure of which is hereby\nincorporated by reference."}, "[3]": {"tested_on": "TNF production by human monocytes", "test": "In vitro TNF production by LPS-stimulated human monocytes (ELISA)", "type": "cell-based", "settings": "Homo sapiens, Monocyte; Table B; LPS 50 ng/ml, 24 h; read-out: IC50, LPS induced TNF human monocyte data", "method": "The effects of the compounds enumerated above on the in vitro production of TNF by human monocytes was examined using the following protocol.\nBacterial lipopolysaccharide (LPS) was used to induce TNF production by human peripheral blood monocytes. TNF activity was measured by a modification of Winston et al., ELISA, described below. […] The cells were allowed to adhere for 2 hours, after which time non-adherent cells were removed by gentle washing. […] At the end of the incubation period, culture supernatants were removed and clarified of cells and all debris. Culture supernatants were immediately assayed for TNF levels in the manner described below.\nThe Elisa employes a murine monoclonal anti-human TNF antibody, described below, as the capture antibody and a polyclonal rabbit anti-human TNF, described below, as the second antibody. […] TNF levels in samples were calculated from a standard curve genereated with recombinant human TNF produced in E. Coli (obtained from SmithKIine Beecham Pharmaceuticals, King of Prussia, Pa., USA).\nPolyclonal rabbit anti-human TNF antibodies were prepared by repeated immunization of New Zeland White (NZW) rabbits with recombinant human TNF emulsified in complete Freund's adjuvant (DEFCO, Ill., USA)."}, "[4]": {"tested_on": "serum TNF in P. acnes-sensitized mice", "test": "P. acnes/LPS endotoxin shock model, serum TNF", "type": "in vivo, mouse (C57BL/6)", "settings": "P. acnes/LPS treated mice, oral dosage, FIG. 1", "from_the_text": "(§1) Two models of endotoxin shock have been utilized to determine in vivo TNF activity and are described below. The actual protocol used in the models is described in Utility Model Examples A and B set out below, i.e. P. acnes model and LPS-GAL model.\nEndotoxin Shock in P. acnes-Sensitized Mice\n(§2) This model is a modification of the previously described protocol for the in vivo induction of TNF as described in Haranaka et al., Cancer Immunol Immunother. 18:81-90, (1984). Treatment with Proprionibacterium Acnes (P. acnes) (1 mg/animal i.p.) renders mice susceptible to the lethal effects of LPS injected 10 days later.\nP. acnes was purchased from Burroughs Wellcome (Triangle Park, N.C., USA), and […] of the heat-killed bacteria was administered in 0.5 ml pyrogen-free saline by intraperitoneal (i.p.) injection to male C57BL/6 mice, obtained from Charles River Laboratories (Stone Ridge, N.Y., USA) of 6-12 weeks of age. […] The survival of animals was monitored for 1 week.\nPlasma levels of TNF were measured using a modification of the basic sandwich ELISA method described in Winston et al., Current Protocols in Molecular Biology, Pg. […] TNF levels in rat samples were calculated from a standard curve generated with recombinant murine TNF (Genzyme, Boston, Mass., USA). TNF levels determined by ELISA correlated with levels detected by the L929 bioassay of Ruff et. al., J. Immunol. […]"}, "[5]": {"tested_on": "endotoxin shock in D-gal-sensitized mice", "test": "LPS-GAL endotoxin shock model (D-gal-sensitized mice)", "type": "in vivo, mouse (C57BL/6)", "from_the_text": "as §1\nEndotoxin Shock in D-gal-Sensitized Mice\nThe protocol used to test the compound of the method of the subject invention was essentially as has been described in Galanos et al., Proc. Nat'l Acad. Sci USA, 76:5939-43 (1979) whose disclosure is herein incorporated by reference. Briefly, D-gal […] sensitizes various strains of mice to the lethal effects of endotoxin. The administration of D-gal (300-500 mg/kg) intravenously (i.v.) sensitizes the mice to doses of Lipopolysaccharide(LPS ) as low as 0.1 mg. […]\nPlasma levels of TNF were measured using a modification of the basic sandwich ELISA method described in Winston et al., Current Protocols in Molecular Biology, Pg. […] TNF levels in rat samples were calculated from a standard curve generated with recombinant murine TNF (Genzyme, Boston, Mass., USA). TNF levels determined by ELISA correlated with levels detected by the L929 bioassay of Ruff et. al., J. Immunol. […] The ELISA detected levels of TNF down to 25 pg/ml."}, "endotoxin shock in mice": {"tested_on": "endotoxin shock in mice", "test": "In vivo endotoxin shock models (P. acnes and/or LPS-GAL)", "set-up": "species or system mouse (C57BL/6)", "settings": "one or both in vivo models", "from_the_text": "as §1\nThe protocol used to test the compound of the method of the subject invention was essentially as has been described in Galanos et al., Proc. Nat'l Acad. Sci USA, 76:5939-43 (1979) whose disclosure is herein incorporated by reference. Briefly, D-gal […] sensitizes various strains of mice to the lethal effects of endotoxin. The administration of D-gal (300-500 mg/kg) intravenously (i.v.) sensitizes the mice to doses of Lipopolysaccharide(LPS ) as low as 0.1 mg. Briefly, male C57BL/6 mice, obtained from Charles River Laboratories (Stone Ridge, N.Y., USA) of 6-12 weeks of age were injected i.v. with 0.1 mg of LPS from Salmonella typhosa (Difco Laboratories, Detroit, Mich., USA) admixed with D(+)-gal (Sigma; 500 mg/kg) in 0.20-0.25 ml pyrogen-free saline. Compounds to be tested were administered at various times prior to or following the i.v. injection of LPS/D-gal. In this model, the control animals usually die 5-6 hr. following the injection of LPS, although on occasion deaths are seen between 24 and 48 hr.\nas §2\nP. acnes was purchased from Burroughs Wellcome (Triangle Park, N.C., USA), and […] of the heat-killed bacteria was administered in 0.5 ml pyrogen-free saline by intraperitoneal (i.p.) injection to male C57BL/6 mice, obtained from Charles River Laboratories (Stone Ridge, N.Y., USA) of 6-12 weeks of age. Ten days later, the mice were injected i.v. with 1 mg LPS in 0.25 ml saline. Compounds to be tested were administered at various times prior to or following the injection of LPS. The survival of animals was monitored for 1 week.\nPlasma levels of TNF were measured using a modification of the basic sandwich ELISA method described in Winston et al., Current Protocols in Molecular Biology, Pg. 11.2.1, Ausubel et al., Ed. (1987) John Wiley and Sons, New York, USA. The Elisa employed a hampster monoclonal anti-mouse TNF (Genzyme, Boston, Mass., USA ) as the capture antibody and a polyclonal rabbit anti-murine TNF (Genzyme, Boston, Mass., USA ) as the detecting antibody. TNF levels in rat samples were calculated from a standard curve generated with recombinant murine TNF (Genzyme, Boston, Mass., USA). TNF levels determined by ELISA correlated with levels detected by the L929 bioassay of Ruff et. al., J. Immunol. 125:1671-1677 (1980), with 1 Unit of activity in the bioassay corresponding to 70 picograms (pg) of TNF in the ELISA. The ELISA detected levels of TNF down to 25 pg/ml."}, "[6]": {"tested_on": "IL-1 production by human monocytes", "settings": "literature (Lee et al.); in words; cited from earlier work"}, "5-lipoxygenase": {"tested_on": "5-lipoxygenase", "settings": "literature (Lee et al.); cited from earlier work"}, "cyclooxygenase": {"tested_on": "cyclooxygenase", "settings": "literature (Lee et al.); cited from earlier work"}, "[7]": {"tested_on": "arachidonic acid-induced inflammation", "settings": "literature (Griswold et al.); cited from earlier work"}}}
{"smiles": "C[S+]([O-])c1ccc(-c2nc3n(c2-c2ccncc2)CCC3)cc1", "note": "(stereo not drawn) [Compound 2, 2-(4-methylsulfinylphenyl)-3-(4-pyridyl)-6,7-dihydro-[5H]-pyrrolo-[1,2-a]-imidazole]", "values": [{"measurement": "IC50", "setting": "[1]", "value": "> 10", "unit": "µM"}, {"measurement": "Percent inhibition of arachidonic acid-induced mouse ear swelling", "setting": "[2]", "value": 44, "unit": "%"}, {"measurement": "IC50", "setting": "[3]", "value": "> 10", "unit": "µM"}, {"measurement": "Reduction in serum / in vivo TNF levels", "setting": "[4]", "value": "decreased levels of in vivo TNF relative to increased oral dosage"}, {"measurement": "Reduction of serum TNF levels", "setting": "[5]; 100 mg/kg, FIG. 3", "value": "reduction of serum TNF levels"}, {"measurement": "Survival rate of animals with endotoxic shock", "setting": "[5]; FIG. 4, control group 30%", "value": 100, "unit": "%"}, {"measurement": "Inhibition of in vivo TNF levels / in vivo activity", "setting": "endotoxin shock in mice", "value": "in vivo activity"}, {"measurement": "Protection from lethal effects of endotoxin shock", "setting": "endotoxin shock in mice", "value": "protection from the lethal effects of endotoxin shock"}]}
{"smiles": "Fc1ccc(-c2nc3n(c2-c2ccncc2)CCS3)cc1", "note": "[5-(4-pyridyl)-6(4-fluorophenyl)-2,3-dihydroimidazo(2,1-b)thiazole]", "values": [{"measurement": "Inhibition of IL-1 production by LPS-stimulated human monocytes", "setting": "[6]", "value": "potent inhibitor of IL-1 production"}, {"measurement": "Inhibition of 5-lipoxygenase-mediated arachidonate metabolism", "setting": "5-lipoxygenase", "value": "inhibits"}, {"measurement": "Inhibition of cyclooxygenase-mediated arachidonate metabolism", "setting": "cyclooxygenase", "value": "inhibits"}, {"measurement": "Effects on the edematous and cellular component of arachidonic acid-induced inflammation", "setting": "[7]", "value": "inhibitory effects"}]}
{"smiles": "CCSc1ccc(-c2nc3n(c2-c2ccncc2)CCC3)cc1", "note": "[Compound 3]", "values": [{"measurement": "IC50", "setting": "[1]", "value": 2, "unit": "µM"}, {"measurement": "Percent inhibition of arachidonic acid-induced mouse ear swelling", "setting": "[2]", "value": 56, "unit": "%"}]}
{"smiles": "CSc1ccc(-c2nc3n(c2-c2ccncc2)CCC3)cc1", "note": "[Compound 1, 2-(4-methylthiophenyl)-3-(4-pyridyl)-6,7-dihydro-[5H]-pyrrolo-[1,2-a-]-imidazole]", "values": [{"measurement": "IC50", "setting": "[1]", "value": 2, "unit": "µM"}, {"measurement": "Percent inhibition of arachidonic acid-induced mouse ear swelling", "setting": "[2]", "value": 56, "unit": "%"}, {"measurement": "IC50", "setting": "[3]", "value": 1, "unit": "µM"}]}
{"smiles": "Cc1cc(-c2c(-c3ccc([S+](C)[O-])cc3)nc3n2CCC3)ccn1", "note": "(stereo not drawn) [Compound 6, 2-(4-methylsulfinylphenyl)-3-(4-(2-methyl)-pyridyl)-6,7-dihydro-[5H]-pyrrolo-[1,2-a]-imidazole]", "values": [{"measurement": "IC50", "setting": "[1]", "value": "> 10", "unit": "µM"}, {"measurement": "Percent inhibition of arachidonic acid-induced mouse ear swelling", "setting": "[2]", "value": 59, "unit": "%"}]}
{"smiles": "CC[S+]([O-])c1ccc(-c2nc3n(c2-c2ccncc2)CCC3)cc1", "note": "(stereo not drawn) [Compound 4]", "values": [{"measurement": "IC50", "setting": "[1]", "value": "> 10", "unit": "µM"}, {"measurement": "Percent inhibition of arachidonic acid-induced mouse ear swelling", "setting": "[2]", "value": 41, "unit": "%"}, {"measurement": "IC50", "setting": "[3]", "value": 7, "unit": "µM"}, {"measurement": "Inhibition of in vivo TNF levels / in vivo activity", "setting": "endotoxin shock in mice", "value": "inhibited in vivo TNF levels"}, {"measurement": "Protection from lethal effects of endotoxin shock", "setting": "endotoxin shock in mice", "value": "protected the animals from endotoxic induced shock"}]}
{"smiles": "CSc1ccc(-c2nc3n(c2-c2ccnc(C)c2)CCC3)cc1", "note": "[Compound 5, 2-(4-methylthiophenyl)-3-(4-(2-methyl)pyridyl)-6,7-dihydro-[5H]-pyrrolo-[1,2-a-]-imidazole]", "values": [{"measurement": "IC50", "setting": "[1]", "value": 2.7, "unit": "µM"}, {"measurement": "Percent inhibition of arachidonic acid-induced mouse ear swelling", "setting": "[2]", "value": 59, "unit": "%"}, {"measurement": "IC50", "setting": "[3]", "value": 7, "unit": "µM"}, {"measurement": "Inhibition of in vivo TNF levels / in vivo activity", "setting": "endotoxin shock in mice", "value": "inhibited in vivo TNF levels"}, {"measurement": "Protection from lethal effects of endotoxin shock", "setting": "endotoxin shock in mice", "value": "protected the animals from endotoxic induced shock"}]}
{"smiles": "CC(Cc1ccc(O)c(O)c1)C(C)Cc1ccc(O)c(O)c1", "note": "(stereo not drawn) [nordihydroguaiaretic acid]", "values": [{"measurement": "Inhibition of IL-1 production by LPS-stimulated human monocytes", "setting": "[6]", "value": "with the exception of nordihydroguaiaretic acid, were inactive"}]}
